This note sets out measurements from ChEMBL document CHEMBL4680222, “Sensitive fluorogenic substrates for sirtuin deacylase inhibitor discovery” (Eur J Med Chem, 2020).

In test [1] the target is T1, NAD-dependent protein deacetylase sirtuin-7 (Homo sapiens) (UniProt Q9NRC8).
T1 sequence (whole entry): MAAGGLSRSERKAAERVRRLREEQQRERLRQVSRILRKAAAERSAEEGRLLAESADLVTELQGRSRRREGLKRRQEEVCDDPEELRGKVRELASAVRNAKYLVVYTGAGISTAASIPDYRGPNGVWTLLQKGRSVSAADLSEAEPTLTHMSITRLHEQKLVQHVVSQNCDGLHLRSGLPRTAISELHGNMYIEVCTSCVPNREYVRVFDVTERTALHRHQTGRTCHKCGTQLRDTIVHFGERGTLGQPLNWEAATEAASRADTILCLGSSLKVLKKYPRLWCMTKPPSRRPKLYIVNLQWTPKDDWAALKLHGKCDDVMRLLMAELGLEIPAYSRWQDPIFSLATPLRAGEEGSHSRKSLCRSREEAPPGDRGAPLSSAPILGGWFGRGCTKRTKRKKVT
Nature of the test: Substrate activity at human N-terminal His-tagged SIRT7 (68 to 354 residues) expressed in Escherichia coli at 0.5 uM measured after 2 hrs in presence of NAD+ and trypsin by fluorescence assay.

In test [2] the target is NAD-dependent protein deacylase sirtuin-6 (Homo sapiens) (UniProt Q8N6T7). Nature of the test: Substrate activity at human N-terminal His-tagged SIRT6 (1 to 355 residues) expressed in Escherichia coli at 0.5 uM measured after 2 hrs in presence of NAD+ and trypsin by fluorescence assay.
Test [3] addresses NAD-dependent protein deacylase sirtuin-5, mitochondrial (Homo sapiens) (UniProt Q9NXA8). Nature of the test: Substrate activity at human N-terminal His-tagged SIRT5 (34 to 302 residues) expressed in Escherichia coli at 0.5 uM measured after 2 hrs in presence of NAD+ and trypsin by fluorescence assay.
In test [4] the target is T2, NAD-dependent protein deacetylase sirtuin-3, mitochondrial (Homo sapiens) (UniProt Q9NTG7).
T2 sequence (whole entry): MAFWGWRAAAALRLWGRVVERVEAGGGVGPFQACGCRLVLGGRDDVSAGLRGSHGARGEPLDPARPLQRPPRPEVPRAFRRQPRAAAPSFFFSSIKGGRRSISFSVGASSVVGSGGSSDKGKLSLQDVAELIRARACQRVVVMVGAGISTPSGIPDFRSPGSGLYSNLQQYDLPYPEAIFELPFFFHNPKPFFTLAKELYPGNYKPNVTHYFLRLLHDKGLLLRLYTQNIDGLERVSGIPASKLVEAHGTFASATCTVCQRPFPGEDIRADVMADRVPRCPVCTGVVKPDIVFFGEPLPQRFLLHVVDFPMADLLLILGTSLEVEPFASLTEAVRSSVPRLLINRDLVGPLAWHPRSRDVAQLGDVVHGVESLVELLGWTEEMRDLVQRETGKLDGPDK
Nature of the test: Substrate activity at human N-terminal His-tagged SIRT3 (122 to 391 residues) expressed in Escherichia coli at 0.5 uM measured after 2 hrs in presence of NAD+ and trypsin by fluorescence assay.

The target of test [5] is T3, NAD-dependent protein deacetylase sirtuin-2 (Homo sapiens) (UniProt Q8IXJ6).
T3 sequence (whole entry): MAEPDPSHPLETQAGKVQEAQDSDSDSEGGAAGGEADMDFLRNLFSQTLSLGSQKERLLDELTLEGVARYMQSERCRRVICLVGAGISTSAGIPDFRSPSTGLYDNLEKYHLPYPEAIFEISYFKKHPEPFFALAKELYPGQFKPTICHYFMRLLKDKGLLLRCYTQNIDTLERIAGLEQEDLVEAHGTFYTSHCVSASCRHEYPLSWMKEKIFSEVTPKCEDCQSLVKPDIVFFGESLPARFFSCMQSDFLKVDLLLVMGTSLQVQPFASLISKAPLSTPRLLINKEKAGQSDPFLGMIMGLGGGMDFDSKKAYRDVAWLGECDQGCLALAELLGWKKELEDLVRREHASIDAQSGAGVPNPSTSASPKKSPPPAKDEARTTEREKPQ
Nature of the test: Substrate activity at human N-terminal His-tagged SIRT2 (56 to 356 residues) expressed in Escherichia coli at 0.5 uM measured after 2 hrs in presence of NAD+ and trypsin by fluorescence assay.

Test [6] addresses T4, NAD-dependent protein deacetylase sirtuin-1 (Homo sapiens) (UniProt Q96EB6).
T4 sequence (whole entry): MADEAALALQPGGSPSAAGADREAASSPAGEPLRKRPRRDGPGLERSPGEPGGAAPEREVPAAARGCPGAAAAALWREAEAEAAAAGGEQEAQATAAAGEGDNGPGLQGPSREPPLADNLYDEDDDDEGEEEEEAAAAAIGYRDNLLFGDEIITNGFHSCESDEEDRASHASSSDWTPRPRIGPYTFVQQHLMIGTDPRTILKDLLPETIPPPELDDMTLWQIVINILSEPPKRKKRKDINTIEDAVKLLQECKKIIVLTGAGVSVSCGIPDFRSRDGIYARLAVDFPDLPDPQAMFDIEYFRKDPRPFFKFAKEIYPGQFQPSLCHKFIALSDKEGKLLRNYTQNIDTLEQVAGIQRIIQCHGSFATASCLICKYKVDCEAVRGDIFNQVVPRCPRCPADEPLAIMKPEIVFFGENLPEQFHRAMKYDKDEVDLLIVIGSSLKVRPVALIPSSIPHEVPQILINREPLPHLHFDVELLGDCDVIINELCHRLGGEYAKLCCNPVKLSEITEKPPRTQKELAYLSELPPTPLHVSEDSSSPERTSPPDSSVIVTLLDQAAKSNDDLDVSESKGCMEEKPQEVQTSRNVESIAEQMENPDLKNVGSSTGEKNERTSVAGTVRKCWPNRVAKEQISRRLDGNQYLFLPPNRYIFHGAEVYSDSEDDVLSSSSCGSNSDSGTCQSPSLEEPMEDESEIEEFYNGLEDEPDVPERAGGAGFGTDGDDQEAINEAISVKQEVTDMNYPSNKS
Nature of the test: Substrate activity at human N-terminal His-tagged SIRT1 (183 to 664 residues) expressed in Escherichia coli at 0.5 uM measured after 2 hrs in presence of NAD+ and trypsin by fluorescence assay.

For test [7], the target named is T1, NAD-dependent protein deacetylase sirtuin-7 (Homo sapiens). In words: Substrate activity at human N-terminal His-tagged SIRT7 (68 to 354 residues) expressed in Escherichia coli at 5 uM measured after 2 hrs in presence of NAD+ and trypsin by fluorescence assay.
The target of test [8] is NAD-dependent protein deacylase sirtuin-6 (Homo sapiens) (UniProt Q8N6T7). Nature of the test: Substrate activity at human N-terminal His-tagged SIRT6 (1 to 355 residues) expressed in Escherichia coli at 5 uM measured after 2 hrs in presence of NAD+ and trypsin by fluorescence assay.
Test [9] deals with NAD-dependent protein deacylase sirtuin-5, mitochondrial (Homo sapiens) (UniProt Q9NXA8). Nature of the test: Substrate activity at human N-terminal His-tagged SIRT5 (34 to 302 residues) expressed in Escherichia coli at 5 uM measured after 2 hrs in presence of NAD+ and trypsin by fluorescence assay.
In test [10] the target is T2, NAD-dependent protein deacetylase sirtuin-3, mitochondrial (Homo sapiens). Nature of the test: Substrate activity at human N-terminal His-tagged SIRT3 (122 to 391 residues) expressed in Escherichia coli at 5 uM measured after 2 hrs in presence of NAD+ and trypsin by fluorescence assay.
Test [11] addresses T3, NAD-dependent protein deacetylase sirtuin-2 (Homo sapiens). Nature of the test: Substrate activity at human N-terminal His-tagged SIRT2 (56 to 356 residues) expressed in Escherichia coli at 5 uM measured after 2 hrs in presence of NAD+ and trypsin by fluorescence assay.
In test [12] the target is T4, NAD-dependent protein deacetylase sirtuin-1 (Homo sapiens). In words: Substrate activity at human N-terminal His-tagged SIRT1 (183 to 664 residues) expressed in Escherichia coli at 5 uM measured after 2 hrs in presence of NAD+ and trypsin by fluorescence assay.
Test [13] addresses T1, NAD-dependent protein deacetylase sirtuin-7 (Homo sapiens). Nature of the test: Substrate activity at human N-terminal His-tagged SIRT7 (68 to 354 residues) expressed in Escherichia coli at 50 uM measured after 2 hrs in presence of NAD+ and trypsin by fluorescence assay.
Test [14] has as its target NAD-dependent protein deacylase sirtuin-6 (Homo sapiens) (UniProt Q8N6T7). In words: Substrate activity at human N-terminal His-tagged SIRT6 (1 to 355 residues) expressed in Escherichia coli at 50 uM measured after 2 hrs in presence of NAD+ and trypsin by fluorescence assay.
The target of test [15] is NAD-dependent protein deacylase sirtuin-5, mitochondrial (Homo sapiens) (UniProt Q9NXA8). In words: Substrate activity at human N-terminal His-tagged SIRT5 (34 to 302 residues) expressed in Escherichia coli at 50 uM measured after 2 hrs in presence of NAD+ and trypsin by fluorescence assay.
For test [16], the target named is T2, NAD-dependent protein deacetylase sirtuin-3, mitochondrial (Homo sapiens). In words: Substrate activity at human N-terminal His-tagged SIRT3 (122 to 391 residues) expressed in Escherichia coli at 50 uM measured after 2 hrs in presence of NAD+ and trypsin by fluorescence assay.
In test [17] the target is T3, NAD-dependent protein deacetylase sirtuin-2 (Homo sapiens). Nature of the test: Substrate activity at human N-terminal His-tagged SIRT2 (56 to 356 residues) expressed in Escherichia coli at 50 uM measured after 2 hrs in presence of NAD+ and trypsin by fluorescence assay.
In test [18] the target is T4, NAD-dependent protein deacetylase sirtuin-1 (Homo sapiens). Nature of the test: Substrate activity at human N-terminal His-tagged SIRT1 (183 to 664 residues) expressed in Escherichia coli at 50 uM measured after 2 hrs in presence of NAD+ and trypsin by fluorescence assay.
Test [19] deals with T3, NAD-dependent protein deacetylase sirtuin-2 (Homo sapiens). In words: Substrate activity at human N-terminal His-tagged SIRT2 (56 to 356 residues) expressed in Escherichia coli at 5 uM measured after 1 hr in presence of NAD+ and trypsin by fluorescence assay.

SMILES strings stand for the structures. The source made the active and inactive calls. The rule behind the calls is not given here. Where a SMILES comes first, the peptide text is derived from it. The star is where a group is joined. AMC = Cc1cc(=O)oc2cc(N*)ccc12; Decanoyl = CCCCCCCCCC(=O)*

Chain of NAD-dependent protein deacylase sirtuin-6 (Homo sapiens) (Q8N6T7 whole entry, the tested form may be a part): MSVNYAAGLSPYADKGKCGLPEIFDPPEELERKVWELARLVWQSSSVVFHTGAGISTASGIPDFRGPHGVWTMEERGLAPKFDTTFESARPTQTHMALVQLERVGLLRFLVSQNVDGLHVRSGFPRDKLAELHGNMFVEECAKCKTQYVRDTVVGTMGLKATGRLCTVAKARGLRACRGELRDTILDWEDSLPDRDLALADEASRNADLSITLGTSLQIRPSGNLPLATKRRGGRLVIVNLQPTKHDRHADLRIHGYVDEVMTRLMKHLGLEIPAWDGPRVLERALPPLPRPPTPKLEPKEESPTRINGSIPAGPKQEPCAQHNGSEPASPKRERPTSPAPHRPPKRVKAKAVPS
Chain of NAD-dependent protein deacylase sirtuin-5, mitochondrial (Homo sapiens) (Q9NXA8 37-310 limits assumed): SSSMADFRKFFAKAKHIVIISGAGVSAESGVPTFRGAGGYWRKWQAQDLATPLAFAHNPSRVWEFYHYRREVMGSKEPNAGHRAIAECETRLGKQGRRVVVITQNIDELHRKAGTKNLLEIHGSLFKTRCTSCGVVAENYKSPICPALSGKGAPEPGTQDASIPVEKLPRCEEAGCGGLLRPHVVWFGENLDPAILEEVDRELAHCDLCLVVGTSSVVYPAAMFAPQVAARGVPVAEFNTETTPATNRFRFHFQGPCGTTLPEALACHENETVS

On to `CCCCCCCCCC(=O)NCCCC[C@H](NC(=O)[C@@H](NC(=O)[C@H](CO)NC(=O)[C@H](CO)NC(C)=O)[C@@H](C)CC)C(=O)Nc1ccc2c(C)cc(=O)oc2c1` (Ac-SSIK(Decanoyl)-{AMC}), for which the Activity in [1] was determined as 0.29 RFU; in test [2], 0.4 RFU; in test [3], 0.31 RFU; in [4], 0.67 RFU; in test [5], 1.38 RFU; in [6], 1.38 RFU. Further, the Activity in test [7] was determined as 1.03 RFU; in test [8] it was 0.3 RFU; in [9], 0.39 RFU; in test [10] it was 1.04 RFU; in test [11], 7.07 RFU; in test [12], 2.13 RFU. Also, the Activity in test [13] was determined as 0.73 RFU; in test [14], 0.73 RFU; in test [15], 1.08 RFU; in test [16] it was 1.64 RFU; in test [17], 13.5 RFU; in test [18] it was 1.34 RFU. For the same compound, the outcome in [19] was Active.
